Ends that are not written are not given here.
Key:
cultured rat Muller cell = experiment: IL-6 production acceleration effect in cultured Muller cell (Test Example 1; IL-6 measured by B9 cell bioassay); assay type: cell-based; details: 24 hours after addition of PACAP 38 (10^−12 M, 10^−9 M to 10^−6 M), vs no addition, p<0.01
Experimental: Wister/ST rats of 14 days of age (20 animals) were sacrificed by bleeding through the cutting of abdominal aorta under diethyl ether anesthesia. The 40 eyeballs were immediately enucleated and soaked in Dulbecco's modified minimum essential medium (DMEM) containing 25 mM HEPES and antibiotics (penicillin 100 U/ml, streptomycin 100 μg/ml, amphotericin B 0.25 μg/ml), one night at room temperature under shade. Next, the eyeballs were transferred into DMEM containing 0.1% trypsin and 70 U/ml collagenase and incubated at 37° C. for 60 minutes. Thereafter, retinas were removed from the eyeballs and transferred into DMEM supplemented with antibiotics and 10% FBS (medium for culturing use) (8 retinas/10 ml DMEM). The retinas were dispersed and suspended until they became small aggregates through the pipetting using a Pasteur pipette having thinned tip. This cell suspension was seeded onto a polystyrene dish (Asahi Techno Glass) and cultured by keeping at 37° C. under an environment of 5% CO2/95% air. […]
The IL-6 concentration in the thus recovered Muller cell culture supernatant was measured using B9 cell which is a hybridoma sub-clone of an IL-6-dependent mouse. […] Regarding the bioassay of IL-6, growth of B9 cell was determined as the fluorescence intensity by Alamar Blue.

retinal ganglion cell [1] = experiment: Kainic acid-induced retinal ganglion cell death model, retinal tissue pNF-H content by sandwich ELISA (Test Example 5); assay type: in vivo, rat; details: 7 days after exposure
Text: In order to clarify whether or not the IL-6 which is expressed in a delayed manner in Muller cell (Test Example 3) is concerned in the retinal ganglion cell death inhibitory effect of PACAP confirmed in Test Example 4, this was verified using the same animal model and using neurofilament (phosphorylated neurofilament-H; pNF-H) protein in the retinal tissue as the index. It is known that pNF-H is a protein which is specifically expressed in the retinal ganglion cell, and that the content of this protein in the retinal tissue can be used as a quantitative index for estimating degree of the retinal ganglion cell death.
A group in which 10 μmol of PACAP 38 is injected into the vitreous body 2 days before the kainic acid exposure in the same manner as in Test Example 4 (pretreatment group) and another group in which the same amount of PACAP is injected simultaneously with kainic acid (simultaneous treatment group) were set up as the test groups. The retinal tissue was collected 7 days after the kainic acid exposure, and the pNF-H protein was extracted. Amount of the pNF-H protein in retinal tissue was measured by the sandwich ELISA.

retinal ganglion cell [2] = experiment: Kainic acid-induced retinal ganglion cell death model, number of cells remaining in the ganglion cell layer (Test Example 4); assay type: in vivo, rat
Experimental: Retinal nerve protecting effect was examined using a kainic acid-induced retinal ganglion cell death animal model.
Male Wister/ST rats of 8 weeks of age were used in the test. After anesthesia by intraperitoneal administration of pentobarbital sodium, PACAP 38 (10 μmol) dissolved in sterile physiological saline or the administration solvent (physiological saline) as the negative control was injected once into the vitreous body in the same manner as in Test Example 3. Two days after the PACAP administration, kainic acid (5 nmol) was injected once into the vitreous body of each animal under anesthesia by a mixed liquid of ketamine and seractal. 7 days after the kainic acid administration, all animals were sacrificed by bleeding through the cutting of abdominal aorta under diethyl ether inhalation anesthesia and their eyeballs were enucleated. The enucleated eyeballs were fixed by soaking in a 1% formaldehyde-1.25% glutaraldehyde mixed fixing liquid. The fixed eyeballs were embedded in paraffin, and then retinal tissue sections of 4 μm in thickness traversing the optic disc were prepared and subjected to hematoxylin eosin staining. Effect of PACAP was judged by counting the number of cells remaining in the ganglion cell layer within a region of from 0.5 to 1.7 mm from the optic disc of each tissue specimen. […]

[3] = system: Muller cell of the retina; experiment: IL-6 expression in retinal tissue after administration into the vitreous body, anti-IL-6 immunostaining (Test Example 3); assay type: in vivo, rat; details: 10^−11 mol PACAP
Experimental: The PACAP 38 was dissolved in sterile physiological saline to a concentration of 3.3 nmol/ml. This was stored under ice-cooling until just before the administration.
Male Wister/ST rats of 8 weeks of age were used in this test. After anesthesia by intraperitoneal administration of pentobarbital sodium, 3 μl per one eye of the administration liquid was injected from about 1 mm behind the limbus using a Hamilton glass syringe equipped with a 30G needle, that is, the liquid was injected into the vitreous body in such a manner that 10^−11 mol of PACAP reached the retina. After 1, 2, 3 and 7 days of the PACAP administration, each animal was sacrificed by bleeding through the cutting of abdominal aorta under diethyl ether inhalation anesthesia, and then both eyeballs were enucleated, and fixed with ice-cold 4% paraformaldehyde-0.1 M phosphate buffer (pH 7.4). The fixed eyeballs were subjected to sucrose replacement and then freeze-embedded to prepare frozen sections of 10 μm in thickness. By applying fluorescence immunostaining to each of the frozen sections using an anti-IL-6 antibody, expression of IL-6 in the retina was observed.

pituitary adenylate cyclase-activating polypeptide (HSDGIFTDSYSRYRKQMAVKKYLAAVLGKRYKQRVKNK; ends and bridges not checked; listed as Ovis sp.) [PACAP 38]
IL-6 concentration in the culture liquid (cultured rat Muller cell): significantly increased
reduction of the amount of pNF-H protein in the retinal tissue induced by kainic acid (retinal ganglion cell [1]; pretreatment group: 10 μmol PACAP 38 intravitreal 2 days before kainic acid, vs saline, p<0.01): inhibited with a significance
effect to inhibit reduction of the amount of pNF-H (retinal ganglion cell [1]; simultaneous treatment group: 10 μmol PACAP 38 injected simultaneously with kainic acid): completely absent
Average value of the number of cells remaining in the ganglion cell layer (retinal ganglion cell [2]; PACAP 38 (10 μmol) intravitreal 2 days before kainic acid (5 nmol), 7 days after kainic acid, 0.5 to 1.7 mm from optic disc): 34.8 cells/mm
inhibition of the reduction of the number of cells caused by kainic acid (retinal ganglion cell [2]; PACAP 38 (10 μmol) intravitreal 2 days before kainic acid, vs physiological saline control, p<0.05): found with a significance
Expression of IL-6 in the retina ([3]; 1 day after intravitreal administration): not found
IL-6-positive cell in the retina ([3]; 2 days after intravitreal administration): frequently observed
IL-6-positive cell in the retina ([3]; 3 days after intravitreal administration): frequently observed
Expression of IL-6 in the retina ([3]; 7 days after intravitreal administration): hardly observed

Reference: patent publication US20080300182A1, “Eye disease treating agent and method for treating eye disease” (NIDEK CO., LTD., priority 2005, published 2008)
